IC50 and inhibition data for one compound are collected here from paper PMC9865587, “Inhibitory Effects of 2-Aminoethoxydiphenyl Borate (2-APB) on Three KV1 Channel Currents” (Molecules, 2023).

What all share (test): cell-based
Assay [1] deals with T1, KV1.3 (Homo sapiens, UniProt P22001).
T1 construct: gene KCNA3

Assay [2] addresses T2, KV1.4 (Homo sapiens, UniProt P22459, T551A).
T2 construct: gene KCNA4
The conditions noted are these: CHO.

The target of assay [3] is T3, KV1.4 (Homo sapiens, UniProt P22459).
T3 construct: gene KCNA4
T3 sequence (P22459 whole entry): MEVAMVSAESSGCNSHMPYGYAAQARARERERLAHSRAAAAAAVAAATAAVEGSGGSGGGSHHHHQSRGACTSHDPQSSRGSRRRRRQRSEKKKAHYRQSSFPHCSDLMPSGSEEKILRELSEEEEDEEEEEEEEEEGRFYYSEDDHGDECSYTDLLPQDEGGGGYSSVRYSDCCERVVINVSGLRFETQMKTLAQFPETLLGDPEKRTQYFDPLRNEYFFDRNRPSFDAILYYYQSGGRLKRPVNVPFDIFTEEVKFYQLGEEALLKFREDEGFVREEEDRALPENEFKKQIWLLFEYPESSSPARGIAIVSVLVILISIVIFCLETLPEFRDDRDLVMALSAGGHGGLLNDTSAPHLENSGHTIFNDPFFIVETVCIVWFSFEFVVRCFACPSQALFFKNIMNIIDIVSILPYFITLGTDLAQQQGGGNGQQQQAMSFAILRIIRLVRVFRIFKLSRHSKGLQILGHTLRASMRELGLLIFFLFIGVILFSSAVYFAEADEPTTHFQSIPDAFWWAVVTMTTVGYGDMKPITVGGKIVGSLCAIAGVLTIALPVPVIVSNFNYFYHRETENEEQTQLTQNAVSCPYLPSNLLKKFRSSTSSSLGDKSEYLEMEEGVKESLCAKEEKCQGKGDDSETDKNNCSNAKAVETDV

Assay [4] concerns the target T4, KV1.4 (Homo sapiens, UniProt P22459, A553V).
T4 construct: gene KCNA4
The conditions noted are these: CHO.

Assay [5] concerns the target T5, KV1.2 (Homo sapiens, UniProt P16389).
T5 construct: gene KCNA2

Assay [6] concerns the target T6, KV1.4 (Homo sapiens, UniProt P22459, N-TERMINALTRUNCATION(1–61DELETED)).
T6 construct: gene KCNA4

In assay [7] the target is T7, KV1.4 (Homo sapiens, UniProt P22459, V556A).
T7 construct: gene KCNA4
T7 sequence (P22459 whole entry V556A): as the sequence (P22459 whole entry) above, with V556A counted along it
The conditions noted are these: CHO.

The target in assay [8] is T8, KV1.4 (Homo sapiens, UniProt P22459, L554A).
T8 construct: gene KCNA4
T8 sequence (P22459 whole entry L554A): as the sequence (P22459 whole entry) above, with L554A counted along it
The conditions noted are these: CHO.

Assay [9] deals with T9, KV1.4 (Homo sapiens, UniProt P22459, V549A).
T9 construct: gene KCNA4
T9 sequence (P22459 whole entry V549A): as the sequence (P22459 whole entry) above, with V549A counted along it
The conditions noted are these: CHO.

Assay [10] has as its target T10, KV1.4 (Homo sapiens, UniProt P22459, V558A).
T10 construct: gene KCNA4
The conditions noted are these: CHO.

T1 sequence (P22001 whole entry): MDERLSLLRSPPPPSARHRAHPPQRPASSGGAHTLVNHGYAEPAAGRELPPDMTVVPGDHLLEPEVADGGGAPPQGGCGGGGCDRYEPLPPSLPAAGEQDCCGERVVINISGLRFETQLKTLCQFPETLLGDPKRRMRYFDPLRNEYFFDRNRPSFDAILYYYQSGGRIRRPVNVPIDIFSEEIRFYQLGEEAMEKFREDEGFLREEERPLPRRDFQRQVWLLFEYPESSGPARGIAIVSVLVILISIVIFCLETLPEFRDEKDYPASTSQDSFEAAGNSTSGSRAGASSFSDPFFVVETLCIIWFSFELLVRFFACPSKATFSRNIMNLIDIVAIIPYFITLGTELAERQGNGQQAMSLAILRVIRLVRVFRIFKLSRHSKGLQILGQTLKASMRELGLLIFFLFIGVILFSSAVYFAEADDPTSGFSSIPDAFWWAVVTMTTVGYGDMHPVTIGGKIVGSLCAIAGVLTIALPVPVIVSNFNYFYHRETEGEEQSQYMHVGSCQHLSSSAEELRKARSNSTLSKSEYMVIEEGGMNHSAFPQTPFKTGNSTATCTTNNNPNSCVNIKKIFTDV
T5 sequence (P16389 whole entry): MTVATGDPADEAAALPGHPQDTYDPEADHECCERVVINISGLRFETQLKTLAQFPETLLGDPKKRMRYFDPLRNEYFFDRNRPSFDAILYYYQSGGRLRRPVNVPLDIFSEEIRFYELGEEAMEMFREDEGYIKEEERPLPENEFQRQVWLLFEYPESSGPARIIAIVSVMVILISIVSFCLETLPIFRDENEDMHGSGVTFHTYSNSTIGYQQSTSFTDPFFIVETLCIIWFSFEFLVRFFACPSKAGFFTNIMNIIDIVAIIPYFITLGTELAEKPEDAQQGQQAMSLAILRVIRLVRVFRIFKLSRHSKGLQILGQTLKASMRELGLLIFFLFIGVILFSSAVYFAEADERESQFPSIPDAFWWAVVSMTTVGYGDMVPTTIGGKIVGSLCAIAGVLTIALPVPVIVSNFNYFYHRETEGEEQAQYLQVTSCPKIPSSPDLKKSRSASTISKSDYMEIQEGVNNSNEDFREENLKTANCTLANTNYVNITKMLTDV
T10 sequence (P22459 whole entry V558A): as the sequence (P22459 whole entry) above, with V558A counted along it
T2 sequence (P22459 whole entry T551A): as the sequence (P22459 whole entry) above, with T551A counted along it
T6 sequence (P22459 62-653, stated change not applied): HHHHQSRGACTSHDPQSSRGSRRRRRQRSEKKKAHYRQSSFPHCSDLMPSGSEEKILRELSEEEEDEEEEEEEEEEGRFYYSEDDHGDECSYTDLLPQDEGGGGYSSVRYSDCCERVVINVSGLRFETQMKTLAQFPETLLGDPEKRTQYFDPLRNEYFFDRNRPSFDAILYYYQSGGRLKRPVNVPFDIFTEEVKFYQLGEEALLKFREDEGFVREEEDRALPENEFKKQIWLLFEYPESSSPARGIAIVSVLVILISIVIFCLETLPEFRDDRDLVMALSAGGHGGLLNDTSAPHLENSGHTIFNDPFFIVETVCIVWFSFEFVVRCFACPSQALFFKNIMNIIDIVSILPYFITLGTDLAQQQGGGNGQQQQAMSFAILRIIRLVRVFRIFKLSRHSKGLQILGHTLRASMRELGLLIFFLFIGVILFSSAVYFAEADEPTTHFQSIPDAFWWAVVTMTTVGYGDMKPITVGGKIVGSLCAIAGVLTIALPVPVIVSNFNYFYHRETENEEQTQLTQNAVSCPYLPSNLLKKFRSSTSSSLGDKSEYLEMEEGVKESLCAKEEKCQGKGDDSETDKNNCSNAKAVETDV
T4 sequence (P22459 whole entry A553V): as the sequence (P22459 whole entry) above, with A553V counted along it

As usually defined, the IC50 is the concentration needed to halve the response being measured. A low value points to inhibition by little substance. Usually inhibition stands for the relative decrease from the control value, in per cent. A higher inhibition goes with a response far below the control. As to `NCCOB(c1ccccc1)c1ccccc1` [2-APB], the IC50 is 455 µM in assay [1], 67.3 µM in assay [3], 310 µM in [5] and 310 µM in assay [6]. Moreover, the inhibition at 100 µM in [2] was 37.8%; in [4], 18.4%; in [7], 60.8%; in assay [8], 32.9%; in assay [9], 44.1%; in [10], 57.3%.
